For 6 compounds, ID50 and Ratio results are on record in ChEMBL document CHEMBL1128316, “Alkane-6,8-diol: inhibitor of tumor promotion in two-stage carcinogenesis in mouse skin” (1995).

One assay deals with Mus musculus. Briefly: Inhibition of TPA-induced inflammatory ear edema in mice(compound was applied 30 min before TPA […],Ear thickness was determined 6 hr after TPA treatment). It is filed as functional.
Assay [1] in a line: Inhibitory ratio at 1.0 mg/ear. It is filed as functional.

`O=c1c(O)c(-c2ccc(O)c(O)c2)oc2cc(O)cc(O)c12` [QUERCETIN] displayed an ID50 in the assay on Mus musculus of 1.6 mg ear-1. Further, the Ratio in assay [1] is recorded as less than 40.
Regarding `C[C@]12CCC(=O)C=C1CCC1[C@@H]2[C@@H](O)C[C@@]2(C)[C@H]1CC[C@]2(O)C(=O)CO` (single isomer, unassigned) [HYDROCORTISONE], the ID50 with Mus musculus is on record as 0.03 mg ear-1. In assay [1], the Ratio is on record as less than 99.
`CCCCCCCCCCCCCCCCCCCC(O)CC(O)CCCCC` (stereo unspecified) had an ID50 in the assay on Mus musculus of 0.5 mg ear-1. In addition, in assay [1], the Ratio was less than 82.
For `COc1ccc2c(c1)c(CC(=O)O)c(C)n2C(=O)c1ccc(Cl)cc1` [INDOMETHACIN], the ID50 in the assay with Mus musculus is 0.3 mg ear-1. Further, in assay [1], the Ratio was less than 96.
Compound `CCCCCCCCCCCCCCCCCCCCCC(O)CC(O)CCCCC` (stereo unspecified) yielded an ID50 in the assay on Mus musculus of 0.4 mg ear-1. For the same compound, the Ratio in assay [1] is reported as less than 85.
`CCCCCCCC(O)CC(O)CCCCC` (stereo unspecified): the Ratio in assay [1] was 23.
